Test system: A549 non-small cell lung carcinoma (NSCLC) xenografts
Assay: Antitumor efficacy in A549 NSCLC xenografts in nude mice
Assay type: in vivo
Details: for % TGI: day 47
Protocol: In the current study, compound (1) was evaluated for its antitumor activity against the A549 NSCLC human xenograft model in nude mice. A549 cells appear to have a functional Notch signaling pathway since receptors, ligands, and downstream effectors such as Hes-1 and Hey-1 are expressed (as assessed by PCR-based gene expression profiling). A549 cells have at least one identifiable defect in the Notch pathway; the negative regulator Numb is expressed only at low levels. In vitro, nM concentrations of compound (1) induce a less transformed phenotype in A549 cells and loss of growth in soft agar […], which is consistent with mechanistic inhibition of Notch activation. […] Female nude mice (10/group), obtained from Charles River Laboratories (Wilmington, Mass.) were used when they were approximately 13-14 weeks old and weighed approximately 23-25 grams. The health of all animals was determined daily by gross observation of experimental animals and by the analyses of blood samples of sentinel animals that were housed on the shared shelf racks. All animals were allowed to acclimate and recover from any shipping related stress for a minimum of 72 hours prior to experimental use. Autoclaved water and irradiated food [5058-ms Pico chow (mouse) Purina, Richmond, Ind.] were provided ad libitum, and the animals were maintained on a 12 hour light and dark cycle. Cages, bedding and water bottles were autoclaved before use and were changed weekly. A549 human NSCLC cells were purchased from ATCC (Manassas, Va.) and cultured in RPMI 1640 culture medium with 10% (v/v) FBS. Cells were grown and harvested by members of the Oncology In Vivo Section (OIVS). Each mouse received 7.5×10^6 cells in 0.2 ml PBS (Phosphate Buffered Saline) implanted subcutaneously in the right hind flank by members of OIVS on Aug. 17, 2006. […] Compound (1) was mixed vigorously prior to withdrawal and administration. Formulated compound and vehicle were prepared weekly and stored at 4° C., as set out below. […] Treatment began on Sep. 12, 2006 (day 26 post tumor cell implant). […] 19, 2006 (day 33 post tumor cell implant). […] 3, 2006 (day 47 post tumor cell implant). Efficacy data was graphically represented as the mean tumor volume+standard error of the mean (SEM). Tumor volumes of treated groups were presented as percentages of tumor volumes of the control groups (% T/C), using the formula: 100×((T−T0)/(C−C0)), where T represented mean tumor volume of a treated group on a specific day during the experiment, T0 represented mean tumor volume of the same treated group on the first day of treatment; C represented mean tumor volume of a control group on the specific day during the experiment, and C0 represented mean tumor volume of the same treated group on the first day of treatment. Tumor volume (in cubic millimeters) was calculated using the ellipsoid formula: (D×(d2))/2 where ‘D’ represents the large diameter of the tumor, and ‘d’ represents the small diameter. In some cases, tumor regression and/or percent change in tumor volume was calculated using the formula: ((T−T0)/T0)×100 where ‘T’ represents mean tumor volume of the treated group at a particular day, and ‘T0’ represents mean tumor volume of the same treated group at initiation of treatment. Statistical analysis was determined by the rank sum test and One Way Anova and a post-hoc Bonferroni t-test (SigmaStat, version 2.0, Jandel Scientific, San Francisco, Calif.). Differences between groups were considered to be significant when the probability value (p) was ≦0.05. […] Percent tumor growth inhibition was calculated on day 47, which was the final day of treatment for the 21-day treated groups, 7 days post-treatment for 14-day treated groups (14+/7−), or 14-days post treatment for the 7-day treated group (7+/14−).

## CC(C)(C(=O)NCC(F)(F)C(F)(F)F)C(=O)N[C@@H]1C(=O)Nc2ccccc2-c2ccccc21 [Compound (1), 2,2-Dimethyl-N—((S)-6-oxo-6,7-dihydro-5H-dibenzo[b,d]azepin-7-yl)-N′-(2,2,3,3,3-pentafluoro-propyl)-malonamide]
3 mg/kg po bid × 21 days
  % TGI: 83%
3 mg/kg po bid, 14+/7− schedule
  % TGI: 83%
3 mg/kg po qd × 21 days
  % TGI: 76%
3 mg/kg po qd, 14+/7− schedule
  % TGI: 66%
10 mg/kg po bid × 21 days
  % TGI: 72%
10 mg/kg po bid, 14+/7− schedule
  % TGI: 80%
10 mg/kg po qd × 21 days
  % TGI: 70%
10 mg/kg po qd, 14+/7− schedule
  % TGI: 77%
30 mg/kg po bid, 14+/7− schedule
  % TGI: 79%
30 mg/kg po qd × 21 days
  % TGI: 66%
30 mg/kg po qd, 14+/7− schedule
  % TGI: 79%
60 mg/kg bid, 7+/14− schedule (to day 67)
  inhibition of tumor growth sustained post treatment: up to 34 days
60 mg/kg po bid, 7+/14− schedule
  % TGI: 91%
60 mg/kg po qd, 14+/7− schedule
  % TGI: 88%
3, 10 or 30 mg/kg once or twice daily for 14 (14+/7−) or 21 days
  % TGIs (range): 66-83%
All 21-day treated groups (to day 63)
  inhibition of tumor growth sustained post treatment: up to 16 days
All qd or bid groups, 14+/7− schedule (to day 63)
  growth suppression lasting post treatment: up to 23 days
Seven or fourteen days of BID treatment out of a 21 day cycle
  tumor growth inhibition (range): 79-91%
